Marks after values point to notes of the source that are not given here.
How the values were obtained:
[1] = system: glycerol-induced kidney injury; test: Glycerol-induced kidney injury (rhabdomyolysis model of AKI) in rats, 24 hours following injection; format: in vivo, rat
Source text: Rats were allowed to recover for various periods of time as described in the Results. In Study I, lymphocytes were studied in vitro after recovery for either 2 or 7 days following I/R or sham surgery for evaluation of function in vitro or for FACS analysis. In Study II, the effect of SOCE on kidney injury was studied with the inhibitor YM58483/BPT2 (N-[4-[3,5-Bis(trifluoromethyl)-1H-pyrazol-1-yl]phenyl]-4-methyl-1,2,3-thiadiazole-5-carboxamide; Tocris/Bio-Techne Minneapolis, MN). Rats were pretreated p.o. 2-3 hours prior to surgery with YM58483.BPT2 (1 mg·kg^−1) in sugar-free chocolate pudding following dilution in 100% EtOH, at, a dose previously shown to affect T cell activation in rats. In some experiments, rats were also treated with the IL17Rc (150 ng/day i.p; R&D Systems). In addition, one experiment utilized a model of rhabdomyolysis, induced by injection of 50% glycerol (10 ml/kg) into the hindlimb muscle of rats following 16 hours of water restriction.
(§1) To measure creatinine, tail blood was collected in heparin containing tubes and centrifuged to collect plasma. Plasma creatinine was measured using a Pointe Scientific Analyzer and Creatinine Assay reagents using methods outlined by the manufacturer (Pointe Scientific, Canton MI). Urine was collected for 24 hours by placing rats in metabolic cages and urine volume was determined gravimetrically. Urine creatinine was measured using a colorimetric assay adopted for microplate readers. Creatinine clearance was measured using UCr*V/PCr.
(§2) Freshly harvested kidneys were minced and digested in liberase (2 μg/ml. Roche, Indianapolis IN) for 15 min at 37° C. using Gentle MACs (Miltenyli, San Diego, CA). The digested tissue was filtered through a 100-μm mesh and washed with RPMI containing 10% fetal bovine serum (Invitrogen). Mononuclear cells were isolated using Percol (Sigma) density gradient centrifugation.
(§3) To evaluate protein expression of IL17 or Orai1, Orai2 or Orai3, cells were restimulated with PMA and ionomycin for 6 hours in the presence of monensin (Golgistop, 1 μg·ml, BD Biosciences) permeabilized with saponin ([…]) and stained with relevant antibody. Cells were scanned using flow cytometry (FACSCalibur, BD Biosciences, San Jose, CA) and scans were analyzed using Flowjo software (Tree Star, Ashland, OR).

[2] = system: progression of CKD induced by high-salt diet following recovery from I/R injury; test: AKI-to-CKD progression: unilateral I/R, contralateral nephrectomy and high salt diet in rats (Study III); format: in vivo, rat
Source text: Study III was designed to investigate SOCE on progression of CKD induced by high-salt diet following recovery from I/R injury using a model of AKI-to-CKD described previously. Rats acclimated to a standard diet (AIN 76A, Dyets, Bethlehem, PA) containing 0.4% NaCl were subjected to left unilateral I/R or sham surgery and allowed to recover for ˜5 weeks. Rats were then subjected to right unilateral nephrectomy and subsequently exposed to elevated dietary Na+ (AIN76A plus 4% NaCl) for an additional 4 weeks (FIG. 9). Sham-control rats were not subjected to renal pedicle clamping, but were subjected to unilateral nephrectomy. Simultaneous with exposure to high salt diet, rats were randomly assigned to vehicle or YM58483 treatment (1mg·kg^−1·day^−1; p.o.). At the end of all studies, rats were deeply anesthetized with 50-100 mg/kg pentobarbital (Fatal Plus, Vortech, Dearborn, MI) and kidneys harvested for analysis.
as §1
At the time of tissue harvest, kidneys were bisected and one half was fixed by immersion in 10% formalin, embedded in paraffin and 5 μm sections stained with picrosirus red to assess fibrosis. For quantitative analysis, five random images of renal outer medulla were obtained using Leica DMLB (Scientific Instruments, Columbus, OH) microscope with a 20× objective. The percent area of picrosirus red stain was scored in a blinded fashion using Image J (NIH).
Total RNA was obtained from kidney using Trizol and the Zymogen RNA extraction kit and cDNA was prepared using MMLV enzyme (Invitrogen, Carlsburg, CA). Quantitative real time PCR (qPCR) using gene specific primers was performed using ABI 7500 (Applied Biosystems, Foster City, CA). mRNA values were calculated using 2^−ΔΔCt. Specific primers sequences for IL-6 (catalog #Rn01410330_m1), Kim-1 (#Rn00597703_m1) and IL17 (Rn01757168_m1) were purchased from ThermoFisher (Waltham, MA).
as §2, §3
Study III was designed to investigate SOCE on progression of CKD induced by high-salt diet following recovery from I/R injury using a model of AKI-to-CKD described previously. Rats acclimated to a standard dict (AIN 76A, Dyets, Bethlehem, PA) containing 0.4% NaCl were subjected left unilateral I/R or sham surgery and allowed to recover for ˜5 weeks. Rats were then subjected to right unilateral nephrectomy and subsequently exposed to elevated dietary Na+ (AIN76A plus 4% NaCl) for an additional 4 weeks (FIG. 9). Sham-control rats were not subjected to renal pedicle clamping, but were subjected to unilateral nephrectomy. Simultaneous with exposure to high salt dict, rats were randomly assigned to vehicle or YM58483 treatment (1 mg·kg−1·day−1; p.o.). […]

human blood CD4+ cells = test: In vitro stimulation of human blood CD4+ cells from AKI patients with elevated sodium, IL17 response; format: cell-based; conditions: 170 mM Na+, overnight (~12 hours)
Protocol: For in vitro stimulation of human blood cells, primary T cells were isolated from fresh blood using Straight whole blood CD4 kit from Miltneyli Biotech (Miltenyli, San Diego, CA) according to manufactures' protocol. CD4+T cells were plated at a density of 1×10^6 cells/mL in RPMI medium supplemented with FBS. Cells were stimulated with human anti-CD3/CD28 dynabeads (Gibco; Catalogue no 11161D) along with labeled treatment overnight (˜12 hours). T cells were harvested and incubated with monensin for 6 hours, prior to staining for IL-17 (Table 4).

[3] = 24 hours following glycerol injection, mean ± S.E.
[4] = 1 mg/kg/day p.o. during 4 weeks high salt diet

## Cc1nnsc1C(=O)Nc1ccc(-n2nc(C(F)(F)F)cc2C(F)(F)F)cc1 [YM58483/BPT2, N-[4-[3,5-Bis(trifluoromethyl)-1H-pyrazol-1-yl]phenyl]-4-methyl-1,2,3-thiadiazole-5-carboxamide]
[1]; [3]
  CD4+ cells per g: 177606 ± 282 cells per g
  CD4+/IL-17+ cells per g: 20622 ± 4191* cells per g
  CD8+ cells per g: 342433 ± 76011 cells per g
  CD8+/IL-17+ cells per g: 19711 ± 6499* cells per g
  Serum Creatinine: 3.3 ± 0.4* mg/dl
  Total IL-17+ cells per g: 60109 ± 21033* cells per g
[1]; glycerol model, 24 hours
  rise in serum creatinine: significantly attenuated
  total number of IL17+ expressing cells: significantly attenuated
[2]; [4]
  Kidney IL6 mRNA expression: significantly attenuated
  expression of Kim-1: significantly attenuated
  increase in B cells: significantly attenuated
  increase in MΦ/dendritic cells: significantly attenuated
  increase in kidney CD4+ cells: significantly attenuated
  increase in kidney CD8+ cells: significantly attenuated
  increased expression (re-stimulation) of IL17+ cells: significantly attenuated
  urinary albumin excretion: significantly attenuated
[2]; end of study, 9 weeks post I/R
  creatinine clearance (reduction relative to sham): significantly attenuated
[2]; picrosirius red, renal outer medulla
  development of interstitial fibrosis: significantly attenuated
Human blood CD4+ cells
  IL17 response to elevated extracellular sodium: inhibited
